# Results from patent US12252488B2 (Nimbus Saturn, Inc., priority 2021, dated 2025).
# Biological target: T1, HPK1 (Homo sapiens, UniProt Q92918)
# T1 construct: purchased Invitrogen
# Assay: HPK1 biochemical enzyme assay (microfluidic mobility shift assay)
# Details: 1000 uM (1 mM) ATP; Caliper mobility shift; 1.5 nM HPK1; 30 min preincubation; read-out: HPK1 1000UMATP caliper IC50
# Procedure: Example 33. HPK1 Biochemical Enzyme Assay
# HPK1 biochemical enzyme assay: HPK1 enzyme inhibition was measured using a microfluidic mobility shift assay. Reactions were performed in a 384-well plate, containing 1.5 nM HPK1 (Invitrogen), in assay buffer (Carna Biosciences; pH 7.4). Test compounds were titrated in ten point curves (top final assay concentration 3 μM), and preincubated with enzyme/substrate mix for 30 min prior to initiation of the reaction by addition of ATP (1 mM final concentration) and substrate (1 μM final concentration; Carna Biosciences) diluted in assay buffer supplemented by MgCl2 (final assay concentration of 5 mM). Following 60 min incubation at RT, the reaction was terminated by addition of 60 μl/well termination buffer (Carna Biosciences) and signal determination using a Caliper EZ Reader (Perkin Elmer, UK).
# The compound numbers correspond to the compound numbers in Table 1. Compounds having an activity designated as “A” provided an IC50≤100 nM; compounds having an activity designated as “B” provided an IC50>100 nM and ≤1,000 nM; compounds having an activity designated as “C” provided an IC50>1,000 nM.
# T1 sequence (Q92918 whole entry): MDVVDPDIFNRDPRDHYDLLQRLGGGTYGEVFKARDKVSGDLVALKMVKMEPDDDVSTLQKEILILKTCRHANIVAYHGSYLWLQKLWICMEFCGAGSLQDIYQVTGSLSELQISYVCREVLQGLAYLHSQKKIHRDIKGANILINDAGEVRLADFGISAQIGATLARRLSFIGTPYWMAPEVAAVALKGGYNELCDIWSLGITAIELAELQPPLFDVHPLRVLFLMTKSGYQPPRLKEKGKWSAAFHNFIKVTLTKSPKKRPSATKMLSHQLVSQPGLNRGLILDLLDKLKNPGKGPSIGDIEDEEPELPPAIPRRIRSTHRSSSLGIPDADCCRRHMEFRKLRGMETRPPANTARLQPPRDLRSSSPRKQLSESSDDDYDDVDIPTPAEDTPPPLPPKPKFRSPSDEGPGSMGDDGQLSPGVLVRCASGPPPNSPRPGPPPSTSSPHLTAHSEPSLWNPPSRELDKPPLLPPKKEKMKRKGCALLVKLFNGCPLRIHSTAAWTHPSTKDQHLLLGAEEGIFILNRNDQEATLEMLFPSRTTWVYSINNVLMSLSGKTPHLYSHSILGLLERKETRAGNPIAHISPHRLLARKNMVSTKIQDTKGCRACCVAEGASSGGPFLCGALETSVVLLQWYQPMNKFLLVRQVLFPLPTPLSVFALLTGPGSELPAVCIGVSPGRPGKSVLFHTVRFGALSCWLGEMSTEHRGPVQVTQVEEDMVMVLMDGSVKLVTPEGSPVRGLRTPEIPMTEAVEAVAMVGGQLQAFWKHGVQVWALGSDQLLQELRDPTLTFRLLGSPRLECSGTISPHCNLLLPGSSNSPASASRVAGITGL
row,IC50 [nM],Compound
1,≤ 100,"O=C(Nc1ccc(-c2cc(Nc3ccc(N4CCC(O)CC4)cn3)c3c(=O)[nH]ccc3n2)c(F)c1)[C@@H]1C[C@H]2CC[C@@H]1C2 (racemic) [I-266, (1R,2R,4S)-N-[3-fluoro-4-[4-[[5-(4-hydroxy-1-piperidyl)-2-pyridyl]amino]-5-oxo-6H-1,6-naphthyridin-2-yl]phenyl] norbornane-2-carboxamide]"
2,≤ 100,"O=C(Nc1ccc(-c2cc(Nc3ccc(N4CCC(O)CC4)cn3)c3c(=O)[nH]ccc3n2)c(F)c1)[C@H]1C[C@H]2CC[C@@H]1C2 (single isomer, unassigned) [I-261]"
3,≤ 100,"O=C(Nc1ccc(-c2cc(Nc3ccc(C4CCOC4)cn3)c3c(=O)[nH]ccc3n2)c(F)c1)C1CCCCC1 (single isomer, unassigned) [I-267, N-[3-fluoro-4-[5-oxo-4-[(5-THF-3-yl-2-pyridyl)amino]-6H-1,6-naphthyridin-2-yl]phenyl] cyclohexane carboxamide]"
4,100 to 1000,"O=C(Nc1ccc(-c2cc(Nc3ccc(N4CCC(O)CC4)cn3)c3c(=O)[nH]ccc3n2)c(F)c1)[C@@H]1C[C@H]2CC[C@@H]1C2 (single isomer, unassigned) [I-269]"
5,≤ 100,"CC(O)(c1ccc(F)c(-c2cc(Nc3ccc(N4CCC(O)CC4)cn3)c3c(=O)[nH]ccc3n2)c1)C(F)(F)F (single isomer, unassigned) [I-273, 2-(2-fluoro-5-(1,1,1-tifluoro-2-hydroxy-propan-2-yl)phenyl)-4-((5-(4-hydroxy-piperidin-1-yl)pyridin-2-yl)amino)-1,6-naphthyridin-5(6H)-one]"
6,≤ 100,"CC(O)(c1ccc(F)c(-c2cc(Nc3ccc(N4CCC(O)CC4)cn3)c3c(=O)[nH]ccc3n2)c1)C(F)(F)F (single isomer, unassigned) [I-274, 2-(2-fluoro-5-(1,1,1-hydroxy-propan-2-yl)phenyl)-4-((5-(4-hydroxy-piperidin-1-y)pyridin-2-yl)amino)-1,6-naphthyridin-5(6H)-one]"
7,≤ 100,"O=C(Nc1ccc(-c2cc(Nc3ccc(N4CCC(O)CC4)cn3)c3c(=O)[nH]ccc3n2)c(F)c1)[C@H]1C[C@H]2CC[C@@H]1C2 (single isomer, unassigned) [I-275]"
8,≤ 100,"O=C(Nc1ccc(-c2cc(Nc3ccc(N4CCC(O)CC4)cn3)c3c(=O)[nH]ccc3n2)c(F)c1)[C@@H]1C[C@H]2CC[C@@H]1C2 (single isomer, unassigned) [I-277]"
9,≤ 100,"CCNC(=O)c1ccc(Nc2cc(-c3c(F)cccc3F)nc3cc[nH]c(=O)c23)cc1 [I-4, 4-[[2-(2,6-difluoro-phenyl)-5-oxo-6H-1,6-naphthyridin-4-yl]amino]-N-ethyl-benzamide]"
10,> 1000,Cc1ccc(F)c(-c2cc(Nc3ccc(N4CCC(O)CC4)cn3)c3c(=O)[nH]ccc3n2)c1 [I-4I]
11,100 to 1000,"O=c1[nH]cc(Br)c2nc(-c3c(F)cccc3F)cc(Nc3ccc(N4CCC(O)CC4)cn3)c12 [I-5, 8-bromo-2-(2,6-difluorophenyl)-4-[[5-(4-hydroxy-1-piperidyl)-2-pyridyl]amino]-6H-1,6-naphthyridin-5-one]"
12,≤ 100,"O=c1[nH]ccc2nc(-c3c(F)cccc3F)cc(Nc3ccc(N4CCNCC4)cn3)c12 [I-6, 2-(2,6-difluoro-phenyl)-4-[(5-piperazin-1-yl-2-pyridyl)amino]-6H-1,6-naphthyridin-5-one]"
13,100 to 1000,"CCNC(=O)c1ccc(Nc2nc(-c3c(F)cccc3F)cc3cc[nH]c(=O)c23)cc1 [I-7, 4-[[3-(2,6-difluorophenyl)-8-oxo-7H-2,7-naphthyridin-1-yl]amino]-N-ethyl-benzamide]"
14,100 to 1000,"O=c1[nH]ccc2cc(-c3c(F)cccc3F)nc(Nc3ccc(N4CCC(O)CC4)cn3)c12 [I-8, 6-(2,6-difluoro-phenyl)-8-[[5-(4-hydroxy-1-piperidyl)-2-pyridyl]amino]-2H-2,7-naphthyridin-1-one]"
15,100 to 1000,"CC(C)c1cc(Nc2ccc(N3CCC(O)CC3)cn2)c2c(=O)[nH]ccc2n1 [I-9, 4-[[5-(4-hydroxy-1-piperidyl)-2-pyridyl]amino]-2-isopropyl-6H-1,6-naphthyridin-5-one]"
16,100 to 1000,"CCNC(=O)c1ccc(Nc2nc(C(C)C)nc3cc[nH]c(=O)c23)cc1 [I-10, N-ethyl-4-[(2-isopropyl-5-oxo-6H-pyrido[4,3-d]pyrimidin-4-yl)amino]benzamide]"
17,100 to 1000,"O=c1[nH]cnc2nc(-c3c(F)cccc3F)cc(Nc3ccc(N4CCC(O)CC4)cn3)c12 [I-11, 7-(2,6-difluorophenyl)-5-[[5-(4-hydroxy-1-piperidyl)-2-pyridyl]amino]-3H-pyrido[2,3-d]pyrimidin-4-one]"
18,100 to 1000,"CCNC(=O)c1ccc(Nc2nc(-c3c(F)cccc3F)cc3nc[nH]c(=O)c23)cc1 [I-12, 4-[[7-(2,6-difluorophenyl)-4-oxo-3H-pyrido[4,3-d]pyrimidin-5-yl]amino]-N-ethyl-benzamide]"
19,100 to 1000,"O=c1[nH]cnc2cc(-c3c(F)cccc3F)nc(Nc3ccc(N4CCC(O)CC4)cn3)c12 [I-13, 7-(2,6-difluoro-phenyl)-5-[[5-(4-hydroxy-1-piperidyl)-2-pyridyl]amino]-3H-pyrido[4,3-d] pyrimidin-4-one]"
20,≤ 100,"CCNC(=O)c1ccc(Nc2cc(-c3c(F)cccc3F)nc3nc[nH]c(=O)c23)cc1 [I-14, 4-[[7-(2,6-difluoro-phenyl)-4-oxo-3H-pyrido[2,3-d]pyrimidin-5-yl]amino]-N-ethyl-benzamide]"
21,100 to 1000,"CC(O)c1c[nH]c(=O)c2c(Nc3ccc(N4CCC(O)CC4)cn3)cc(-c3c(F)cccc3F)nc12 (stereo not shown) [I-15, 2-(2,6-difluorophenyl)-8-(1-hydroxyethyl)-4-[[5-(4-hydroxy-1-piperidyl)-2-pyridyl]amino]-6H-1,6-naphthyridin-5-one]"
22,100 to 1000,"CC(C)(O)c1c[nH]c(=O)c2c(Nc3ccc(N4CCC(O)CC4)cn3)cc(-c3c(F)cccc3F)nc12 [I-16, 2-(2,6-difluorophenyl)-8-(1-hydroxy-1-methyl-ethyl)-4-[[5-(4-hydroxy-1-piperidyl)-2-pyridyl]amino]-6H-1,6-naphthyridin-5-one]"
23,100 to 1000,"O=c1[nH]ccc2nc(C3CC3)cc(Nc3ccc(N4CCC(O)CC4)cn3)c12 [I-17, 2-cyclopropyl-4-[[5-(4-hydroxy-1-piperidyl)-2-pyridyl]amino]-6H-1,6-naphthyridin-5-one]"
24,> 1000,"CS(=O)(=O)c1ccc(Nc2cc(-c3c(F)cccc3F)nc3cc[nH]c(=O)c23)nc1 [I-18, 2-(2,6-difluoro-phenyl)-4-[(5-methyl-sulfonyl-2-pyridyl)amino]-6H-1,6-naphthyridin-5-one]"
25,100 to 1000,"O=c1[nH]ccc2nc(C3CCCCC3)cc(Nc3ccc(N4CCC(O)CC4)cn3)c12 [I-19, 2-cyclohexyl-4-[[5-(4-hydroxy-1-piperidyl)-2-pyridyl]amino]-6H-1,6-naphthyridin-5-one]"
26,100 to 1000,"O=c1[nH]ccc2nc(C3CCCC3)cc(Nc3ccc(N4CCC(O)CC4)cn3)c12 [I-20, 2-cyclopentyl-4-[[5-(4-hydroxy-1-piperidyl)-2-pyridyl]amino]-6H-1,6-naphthyridin-5-one]"
27,100 to 1000,"CC(C)c1cc(Nc2ccc(N3CCNCC3)cn2)c2c(=O)[nH]ccc2n1 [I-21, 2-isopropyl-4-[(5-piperazin-1-yl-2-pyridyl)amino]-6H-1,6-naphthyridin-5-one]"
28,≤ 100,"CC(C)c1cc(Nc2ccc(N3CCOCC3)cn2)c2c(=O)[nH]ccc2n1 [I-22, 2-isopropyl-4-[(5-morpholino-2-pyridyl)amino]-6H-1,6-naphthyridin-5-one]"
